Reference: patent US9676774B2, “Compounds and compositions for treatment of cancer” (Sunesis Pharmaceuticals, Inc., priority 2006, dated 2017)
pIC50: −log10 of the molar value.

Columns and labels:
HCT-116 cells = experiment: MTT cell viability (cytotoxicity) assay in HCT-116 cells; type: cell-based; conditions: Homo sapiens, 72 hours incubation, highest concentration 5 μM, read-out: IC50 (reduced cell viability)
Method: MTT Dye Solution: 5 mg/mL MTT dye (Sigma #M2128) in sterile PBS, filter sterilized, stored at 4° C. in a dark bottle no longer than 1 month.
Lysis Buffer: 50% N,N-dimethyl formamide (Aldich #31,993-7) in dH20, 20% w/v lauryl sulfate (added with stirring at 37° C.) (Sigma #L4509), adjusted pH to 4.7 with 2.5% of 80% acetic acid (Fisher #A490-212) and 2.5% 1 N HCl (Spectrum #HY105).
Supplemented RPMI media: 500 mL RPMI (Cellgro #10-040-CV), 10% FBS (Cellgro #35-011CV) and 1% Sodium Bicarbonate solution (Cellgro @35-035-CI), 1% Antibotic Solution (100× stock; Cellgro #30-004CI).
HCT-116 cells were purchased from ATTC (#CCL-247).
Background: No cells, Totals: Cells treated with DMSO only
96-well tissue culture-treated flat bottom plates (Costar #3595) were plated with 4000 trypsinized cells in 100 μL/well and incubated overnight. 100× stock concentrations of compounds were prepared in DMSO and serially diluted two-fold in DMSO in a 96-well polypropylene v-bottom plate (Costar #3363). 5 μL of DMSO dilutions were then added to 45 μL supplemented RPMI, and 10 μL/well of this mixture were added to plates containing HCT-116 cells. The highest concentration of compounds was 5 μM. Plates were incubated for 72 hours at 37° C. in an incubator (5% CO2).
After incubation, 20 μL of MTT solution were added to each well and incubated at 37° C. for 1.5 hour. 100 μL lysis buffer was then added and plates were incubated for 48 hours at 37° C. Cell viability was then recorded by absorbance at 595 nm using a Biorad Benchmark Microplate Reader. The fraction of dead cells was determined by Fraction of Dead cells=Absorbance of sample well−Avg(no cell control)/Avg(Absorbance of DMSO only Control)−Avg(no cell control).

[1] = In vitro reaction of SNS-595 with pooled human liver microsomes (product identification); type: in vitro ADME; conditions: for product formed from SNS-595 in liver microsomes: human liver microsomes 1 mg/mL, 10 or 100 μM SNS-595, 60 min, 37° C., NADPH
Method: The in vitro production of N-Desmethyl SNS-595 from SNS-595 was monitored as described herein. The pooled Human Liver Microsomes were obtained from BD Gentest and NADPH was obtained from Sigma.
The in vitro reactions were performed (a) in the presence of NADPH as a cofactor and (b) in the absence of NADPH to identify any SNS-595 derivatives generated by cofactor independent mechanisms.
The reaction mixture constituted 100 mM Sodium Phosphate buffer, pH 7.4, containing 3.3 mM MgCl2, 1 mg/mL liver microsomal protein, 10 or 100 μM SNS-595, and 1 mM NADPH for reaction with NADPH. In both the NADPH plus and minus reactions, SNS-595 was added to the reaction mixture and allowed to equilibrate to 37° C. for 10 minutes before starting the reaction by adding NADPH or an equivalent volume of buffer. Reactions were performed in a volume of 1 mL in 2 mL 96-well polypropylene assay blocks. The reaction was stopped by adding an equal volume of acetonitrile at both 0 and 60 minutes after initiating the reaction. Samples were placed on ice until centrifugation at 4100 g for 10 minutes to remove proteins for subsequent analysis.
SNS-595 and the reaction products were identified on an API 4000 mass spectrometer coupled to a turbo electro spray ionization source. Prior to MS analysis chromatography was performed to achieve separation of the reaction precuts (N-desmethyl-SNS-595 had the […] SNS-595). The HPLC system consisted of an Agilent 1100 binary pump and single wavelength UV/Vis as a detector, and a Phenomenex Synergi Hydro-RP column (150×2 mm, 4 micron, 80 Å particle size). Following column separation, UV spectra were collected at 350 nm before mass spectral analysis. Mass spectral identification of the reaction products was done using a series of three experiments; MS full scan, product ion scans on all reaction products identified in the MS full scan analysis as well as multiple reaction monitoring (MRM) or product ion scans on theoretically possible reaction products. […]

CO[C@H]1CN(c2ccc3c(=O)c(C(=O)O)cn(-c4nccs4)c3n2)C[C@@H]1N [N-desmethyl-SNS-595, (+)-1,4-dihydro-7-[(3S,4S)-3-methoxy-4-amino-1-pyrrolidinyl]-4-oxo-1-(2-thiazolyl)-1,8-naphthyridine-3-carboxylic acid]
pIC50 (HCT-116 cells): 6.29 | product formed from SNS-595 in liver microsomes [1]: predominant product formed | product detectable after incubation of SNS-595 in liver microsomes ([1]; human liver microsomes, 10 μM incubation concentration of SNS-595): only product detectable

CN[C@H]1CN(c2ccc3c(=O)c(C(=O)O)cn(-c4nccs4)c3n2)C[C@@H]1OC [SNS-595, (+)-1,4-dihydro-7-[(3S,4S)-3-methoxy-4-(methylamino)-1-pyrrolidinyl]-4-oxo-1-(2-thiazolyl)-1,8-naphthyridine-3-carboxylic acid]
pIC50 (HCT-116 cells): 6.37

CN[C@H]1CN(c2ccc3c(=O)c(C(=O)O)cn(-c4nccs4)c3n2)C[C@@H]1O [O-desmethyl-SNS-595, (+)-1,4-dihydro-7-[(3S,4S)-3-hydroxy-4-methylamino-1-pyrrolidinyl]-4-oxo-1-(2-thiazolyl)-1,8-naphthyridine-3-carboxylic acid]
pIC50 (HCT-116 cells): < 5.30 | product formed from SNS-595 in liver microsomes [1]: second product formed
